The target of series [1] is T1, Farnesyl protein transferase (FPT) (Homo sapiens, UniProt P49354+P49356).
T1 construct: partially purified from human placenta; from tissue; host or cells: human placenta
Description: In-vitro farnesyl protein transferase assay (farnesylation of Ki-ras with radiolabelled farnesyl pyrophosphate). Type of series: biochemical. Particulars: read-out: IC50 in the above test. The procedure:
The following stock solutions were used and the assays were conducted in 96 well plates: TRIS Buffer (500 mM TRIS, 50 mM MgCl2.6H2O, pH=8.0); Farnesyl pyrophosphate (6.4 mg/ml); Aprotinin (1.9 mg/ml); Ki-ras (0.5 mg/ml, stored at −80° C.); Acid ethanol (850 ml absolute ethanol+150 ml concentrated HCl).
Farnesyl protein transferase (FPT) was partially purified from human placenta by t ammonium sulphate fractionation followed by a single Q-Sepharose™ (Pharmacia, Inc) anion exchange chromatography essentially as described by Ray and Lopez-Belmonte (Ray K P and Lopez-Belmonte J (1992) Biochemical Society Transactions 20 494-497). The substrate for FPT was Kras (CVIM C-terminal sequence). The cDNA for oncogenic val12 variant of human c-Ki-ras-2 4B was obtained from the plasmid pSW11-1 (ATCC). This was then subcloned into the polylinker of a suitable expression vector e.g. pIC147. The Kras was obtained after expression in the E. coli strain, BL21. […]
Assays were performed in 96 well plates as follows: 10 μl of test compound solution was added to each well. […] Precipitated protein was then collected onto glass fibre filter mats (B) using a Tomtec™ cell harvester and tritiated label was measured in a Wallac™1204 Betaplate scintillation counter. […]

Molecules are shown by their SMILES.

In the case of `CSCC[C@H](NC(=O)c1ccc(COC(Cn2ccnc2)c2ccc(F)cc2)cc1-c1ccc(F)cc1)C(=O)O` (stereo partly drawn) [Example 2, (2S)-2-{2-(4-fluorophenyl)-4-[2-(imidazol-1-yl)-1-(4-fluorophenyl)ethoxymethyl]benzoylamino]-4-methylsulfanylbutyric acid], the IC50 in series [1] is around 1 nM.
Take `CSCC[C@H](NC(=O)c1ccc(COC(Cn2ccnc2)c2nccs2)cc1-c1ccc(F)cc1)C(=O)OC(C)(C)C` (stereo partly drawn) [Example 16, Tert-butyl (2S)-2-{2-(4-fluorophenyl)-4-[1-(thiazol-2-yl)-2-(imidazol-1-yl)ethoxymethyl]benzoylamino}-4-methylsulfanylbutyrate]: the melting point fell in the range of 50 to 53 °C.

The values above are taken from patent US6342765B1, “Imidazole derivatives and their use as farnesyl protein transferase inhibitors” (AstraZeneca UK Limited, priority 1997, dated 2002).
